This passage reports IC50 results from PubChem BioAssay AID651650 (Sanford-Burnham Center for Chemical Genomics, 2012).

Calls of active or inactive are those of the source.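 How the source made its calls: active means mean IC50 below 20 µM in each of the two panels, so potent in both; inactive means the rest.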

For this assay, the target named is Neuropilin-1 (Homo sapiens) (UniProt O14786). The assay is described as follows: NRP-1 b1b2 CendR peptide binding inhibitors, dose response, biochemical, FP and AlphaScreen panel (AID 651650). The note with it: NRP-1 b1b2 / RPARPAR peptide binding, FP or AlphaScreen.
Where [1] appears, read: AlphaScreen, run 1, individual panel run IC50.
[2] abbreviates: FP, run 1, individual panel run IC50.
The mark [3] stands for this setting: FP, run 2, individual panel run IC50.

Usually IC50 stands for the concentration at which inhibition is half-maximal.

Sequence of Neuropilin-1 (Homo sapiens) (O14786 whole entry, looked up): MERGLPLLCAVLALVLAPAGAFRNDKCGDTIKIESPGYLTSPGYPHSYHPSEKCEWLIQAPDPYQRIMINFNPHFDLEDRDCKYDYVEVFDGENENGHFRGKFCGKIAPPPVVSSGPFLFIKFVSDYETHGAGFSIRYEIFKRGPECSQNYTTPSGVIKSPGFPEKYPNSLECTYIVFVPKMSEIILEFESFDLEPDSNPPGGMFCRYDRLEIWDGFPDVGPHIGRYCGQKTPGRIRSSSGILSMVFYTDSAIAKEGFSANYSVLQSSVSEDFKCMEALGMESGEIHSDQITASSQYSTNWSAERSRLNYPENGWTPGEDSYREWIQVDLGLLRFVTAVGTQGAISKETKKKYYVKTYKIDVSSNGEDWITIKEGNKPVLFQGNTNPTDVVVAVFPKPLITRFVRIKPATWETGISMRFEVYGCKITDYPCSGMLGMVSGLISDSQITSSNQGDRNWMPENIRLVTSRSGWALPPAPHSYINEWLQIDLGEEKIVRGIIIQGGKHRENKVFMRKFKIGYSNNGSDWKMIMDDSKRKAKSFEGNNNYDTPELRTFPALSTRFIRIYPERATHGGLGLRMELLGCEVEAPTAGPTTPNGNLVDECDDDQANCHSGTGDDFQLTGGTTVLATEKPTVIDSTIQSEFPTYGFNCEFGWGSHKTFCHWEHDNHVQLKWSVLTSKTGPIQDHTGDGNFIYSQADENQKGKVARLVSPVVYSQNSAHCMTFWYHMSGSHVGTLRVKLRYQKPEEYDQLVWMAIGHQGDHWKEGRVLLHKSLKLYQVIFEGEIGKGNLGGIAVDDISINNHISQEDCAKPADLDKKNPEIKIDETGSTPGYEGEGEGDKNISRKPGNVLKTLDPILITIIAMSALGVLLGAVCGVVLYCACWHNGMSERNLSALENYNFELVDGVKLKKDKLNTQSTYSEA

For the compound `COC(=O)c1c(NC(=O)CN(c2ccccc2)S(C)(=O)=O)sc2c1CCCC2`, the IC50 reads like this: (AlphaScreen, mean of runs) 15.5 µM; under setting [1], 15.5 µM; (FP, mean of runs) > 95 µM (inactive); under setting [2], greater than 95 µM; under setting [3], greater than 95 µM.

Regarding `CCN(C[C@H]1N[C@@](CC)(C(=O)OC)[C@H]2C(=O)N(C)C(=O)[C@@H]12)S(=O)(=O)c1ccc(OC)cc1`, the IC50 (AlphaScreen, mean of runs) was > 100 µM (inactive); the IC50 under setting [1] is greater than 100 µM; the IC50 (FP, mean of runs) is > 95 µM (inactive); the IC50 under setting [2] is greater than 95 µM; the concentration for half-maximal inhibition (IC50) under setting [3] was greater than 95 µM.

For `CN(C)/N=C/c1ccc(Sc2ccc([N+](=O)[O-])cc2[N+](=O)[O-])o1`, where the note is “AlphaScreen, mean of runs”, the IC50 result is “inactive”. Moreover, the IC50 is, setting by setting: under setting [1], 85.7 µM; (FP, mean of runs) > 95 µM (inactive); under setting [2], greater than 95 µM; under setting [3], greater than 95 µM.

`CCn1c(SCC(=O)c2ccccc2)nnc1-c1cccs1`: the IC50 entry (AlphaScreen, mean of runs) was “inactive”. Besides, the IC50 by setting is: under setting [1], 95.3 µM; (FP, mean of runs) > 95 µM (inactive); under setting [2], greater than 95 µM; under setting [3], greater than 95 µM.

Turning to `CC(C)(C)N(NC(=O)Nc1ccc(Cl)cc1)C(=O)c1ccccc1`, the IC50 was > 100 µM (inactive) (AlphaScreen, mean of runs); greater than 100 µM under setting [1]; > 95 µM (inactive) (FP, mean of runs); greater than 95 µM under setting [2]; greater than 95 µM under setting [3].

On to `OCCCc1n[nH]c(=S)n1-c1ccccc1`, for which the IC50 runs as follows: (AlphaScreen, mean of runs) > 100 µM (inactive); under setting [1], greater than 100 µM; (FP, mean of runs) > 95 µM (inactive); under setting [2], greater than 95 µM; under setting [3], greater than 95 µM.

Turning to `CN(c1ccccc1)S(=O)(=O)c1cccc(NC(=O)CSc2nncn2C)c1`, the IC50 reads like this: (AlphaScreen, mean of runs) > 100 µM (inactive); under setting [1], greater than 100 µM; (FP, mean of runs) > 95 µM (inactive); under setting [2], greater than 95 µM; under setting [3], greater than 95 µM.

On to `COc1ccc(-c2csc(Nc3cccnc3)n2)cc1`, for which the IC50 was > 100 µM (inactive) (AlphaScreen, mean of runs); greater than 100 µM under setting [1]; > 95 µM (inactive) (FP, mean of runs); greater than 95 µM under setting [2]; greater than 95 µM under setting [3].

On to `Fc1cc(Cl)ccc1Nc1nc(NCc2ccccc2)nc2ccsc12`, for which the IC50 by setting is: (AlphaScreen, mean of runs) > 100 µM (inactive); under setting [1], greater than 100 µM; (FP, mean of runs) > 95 µM (inactive); under setting [2], greater than 95 µM; under setting [3], greater than 95 µM.

In the case of `CN(C)CCOC(c1ccc(Cl)cc1)c1ccccn1` (stereo not given), the IC50 by setting is: (AlphaScreen, mean of runs) > 100 µM (inactive); under setting [1], greater than 100 µM; (FP, mean of runs) > 95 µM (inactive); under setting [2], greater than 95 µM; under setting [3], greater than 95 µM.

As for `CN1C(=O)c2oc3ccccc3c(=O)c2C1c1ccccn1` (stereo not given), the IC50 result reads like this: (AlphaScreen, mean of runs) “inactive”; (FP, mean of runs) “inactive”. In addition, the IC50 reads like this: under setting [1], 34.9 µM; under setting [2], 25.1 µM; under setting [3], 21.4 µM.

On to `O=C(CSc1nnc(CNC(=O)C23CC4CC(CC(C4)C2)C3)n1-c1ccccc1)Nc1ccc(F)cc1`, for which the IC50 is, setting by setting: (AlphaScreen, mean of runs) > 100 µM (inactive); under setting [1], greater than 100 µM; (FP, mean of runs) > 95 µM (inactive); under setting [2], greater than 95 µM; under setting [3], greater than 95 µM.

Consider `COC(=O)c1ccc(Cn2nnc3c(=O)[nH]c(C4CCCN(S(=O)(=O)c5cccc(Cl)c5)C4)nc32)cc1` (stereo not given), for which the IC50 (AlphaScreen, mean of runs) was > 100 µM (inactive); the concentration for half-maximal inhibition (IC50) under setting [1] is greater than 100 µM; the IC50 (FP, mean of runs) was > 95 µM (inactive); the concentration for half-maximal inhibition (IC50) under setting [2] is greater than 95 µM; the concentration for half-maximal inhibition (IC50) under setting [3] was greater than 95 µM.

`CC(NCCOCCOc1ccccc1)c1ccccc1` (stereo not given): the IC50 (AlphaScreen, mean of runs) is > 100 µM (inactive); the concentration for half-maximal inhibition (IC50) under setting [1] was greater than 100 µM; the IC50 (FP, mean of runs) is > 95 µM (inactive); the IC50 under setting [2] is greater than 95 µM; the IC50 under setting [3] is greater than 95 µM.

On to `CCOC(=O)/C=C/COc1ccccc1[N+](=O)[O-]`, for which the IC50 (AlphaScreen, mean of runs) was > 100 µM (inactive); the IC50 under setting [1] is greater than 100 µM; the IC50 (FP, mean of runs) is > 95 µM (inactive); the IC50 under setting [2] was greater than 95 µM; the half-inhibitory concentration (IC50) under setting [3] is greater than 95 µM.

Take `O=c1c2cn[nH]c2nc(SCc2ccccc2F)n1-c1ccc(Br)cc1`: the IC50 was > 100 µM (inactive) (AlphaScreen, mean of runs); greater than 100 µM under setting [1]; > 95 µM (inactive) (FP, mean of runs); greater than 95 µM under setting [2]; greater than 95 µM under setting [3].

`O=C(c1ccc(-c2cccc(C(F)(F)F)c2)o1)N1CCCC(C(F)(F)F)C1` (stereo not given): the IC50 reads like this: (AlphaScreen, mean of runs) > 100 µM (inactive); under setting [1], greater than 100 µM; (FP, mean of runs) > 95 µM (inactive); under setting [2], greater than 95 µM; under setting [3], greater than 95 µM.

In the case of `CC(C(=O)N1CCN(c2ccc(Cl)cc2)CC1)c1ncc(C(F)(F)F)cc1Cl` (stereo not given), the IC50 (AlphaScreen, mean of runs) is > 100 µM (inactive); the half-inhibitory concentration (IC50) under setting [1] is greater than 100 µM; the IC50 (FP, mean of runs) is > 95 µM (inactive); the IC50 under setting [2] was greater than 95 µM; the concentration for half-maximal inhibition (IC50) under setting [3] is greater than 95 µM.

`CC(OC(=O)c1ccco1)C(=O)Nc1nc(-c2ccccc2)cs1` (stereo not given): the IC50 is > 100 µM (inactive) (AlphaScreen, mean of runs); greater than 100 µM under setting [1]; > 95 µM (inactive) (FP, mean of runs); greater than 95 µM under setting [2]; greater than 95 µM under setting [3].

Turning to `O=C(O/N=C1/CCSc2ccccc21)c1ccccc1`, the IC50 by setting is: (AlphaScreen, mean of runs) > 100 µM (inactive); under setting [1], greater than 100 µM; (FP, mean of runs) > 95 µM (inactive); under setting [2], greater than 95 µM; under setting [3], greater than 95 µM.

As to `O=C(CSc1nc2ccccc2c(=O)n1-c1ccc(F)cc1F)Nc1ccc2c(c1)CCC2`, the IC50 runs as follows: (AlphaScreen, mean of runs) > 100 µM (inactive); under setting [1], greater than 100 µM; (FP, mean of runs) > 95 µM (inactive); under setting [2], greater than 95 µM; under setting [3], greater than 95 µM.

For the compound `COCCNC(=S)N(CCc1c(C)[nH]c2ccc(F)cc12)Cc1cccs1`, the IC50 reads like this: (AlphaScreen, mean of runs) > 100 µM (inactive); under setting [1], greater than 100 µM; (FP, mean of runs) > 95 µM (inactive); under setting [2], greater than 95 µM; under setting [3], greater than 95 µM.

As to `COC(=O)N[C@@H]1C[C@H]2[C@@H]3CC[C@H]4C[C@@H](OC)CC[C@]4(C)[C@H]3CC[C@]12C`, the IC50 entry (AlphaScreen, mean of runs) was “inactive”. In addition, the half-inhibitory concentration (IC50) is, setting by setting: under setting [1], 69.5 µM; (FP, mean of runs) > 95 µM (inactive); under setting [2], greater than 95 µM; under setting [3], greater than 95 µM.

Consider `O=C(NCCOC(=O)c1ccccc1)c1ccccc1`, for which, where the note is “AlphaScreen, mean of runs”, the IC50 result is “inactive”. The IC50 was 45.3 µM under setting [1]; > 95 µM (inactive) (FP, mean of runs); greater than 95 µM under setting [2]; greater than 95 µM under setting [3].

On to `O=C(Cc1ccc(F)cc1)N1CCN=C1SCc1ccc([N+](=O)[O-])cc1`, for which the IC50 by setting is: (AlphaScreen, mean of runs) > 100 µM (inactive); under setting [1], greater than 100 µM; (FP, mean of runs) > 95 µM (inactive); under setting [2], greater than 95 µM; under setting [3], greater than 95 µM.
